Counter-ions that a name gives are not always drawn.
Target: T1, recombinant human baculovirus-expressed GST-tagged FASN (Homo sapiens, UniProt P49327)
T1 construct: GST
Experiment: FASN enzyme activity assay, fluorescence-based detection of CoA with CPM
Assay type: biochemical
Conditions: 5 nM FASN, 150 μM NADPH, 10 μM acetyl-CoA, 25 μM malonyl-CoA, 90 minutes incubation; read-out: IC50 data for Additional Compounds of Formulae I-V(a): Activity
Method in brief: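 Human GST-tagged FASN, baculovirus-expressed (5 nM), in 50 mM HEPES pH 7.5 with 150 μM NADPH, 10 μM acetyl-CoA, 25 μM malonyl-CoA, 0.5% DMSO; malonyl-CoA-started, 90 min. Released CoA detected with CPM (50 μM dilution), 30 min, fluorescence ex 390/em 530. IC50 from variable-slope sigmoidal fit of % inhibition versus log concentration.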

T1 sequence (P49327 whole entry): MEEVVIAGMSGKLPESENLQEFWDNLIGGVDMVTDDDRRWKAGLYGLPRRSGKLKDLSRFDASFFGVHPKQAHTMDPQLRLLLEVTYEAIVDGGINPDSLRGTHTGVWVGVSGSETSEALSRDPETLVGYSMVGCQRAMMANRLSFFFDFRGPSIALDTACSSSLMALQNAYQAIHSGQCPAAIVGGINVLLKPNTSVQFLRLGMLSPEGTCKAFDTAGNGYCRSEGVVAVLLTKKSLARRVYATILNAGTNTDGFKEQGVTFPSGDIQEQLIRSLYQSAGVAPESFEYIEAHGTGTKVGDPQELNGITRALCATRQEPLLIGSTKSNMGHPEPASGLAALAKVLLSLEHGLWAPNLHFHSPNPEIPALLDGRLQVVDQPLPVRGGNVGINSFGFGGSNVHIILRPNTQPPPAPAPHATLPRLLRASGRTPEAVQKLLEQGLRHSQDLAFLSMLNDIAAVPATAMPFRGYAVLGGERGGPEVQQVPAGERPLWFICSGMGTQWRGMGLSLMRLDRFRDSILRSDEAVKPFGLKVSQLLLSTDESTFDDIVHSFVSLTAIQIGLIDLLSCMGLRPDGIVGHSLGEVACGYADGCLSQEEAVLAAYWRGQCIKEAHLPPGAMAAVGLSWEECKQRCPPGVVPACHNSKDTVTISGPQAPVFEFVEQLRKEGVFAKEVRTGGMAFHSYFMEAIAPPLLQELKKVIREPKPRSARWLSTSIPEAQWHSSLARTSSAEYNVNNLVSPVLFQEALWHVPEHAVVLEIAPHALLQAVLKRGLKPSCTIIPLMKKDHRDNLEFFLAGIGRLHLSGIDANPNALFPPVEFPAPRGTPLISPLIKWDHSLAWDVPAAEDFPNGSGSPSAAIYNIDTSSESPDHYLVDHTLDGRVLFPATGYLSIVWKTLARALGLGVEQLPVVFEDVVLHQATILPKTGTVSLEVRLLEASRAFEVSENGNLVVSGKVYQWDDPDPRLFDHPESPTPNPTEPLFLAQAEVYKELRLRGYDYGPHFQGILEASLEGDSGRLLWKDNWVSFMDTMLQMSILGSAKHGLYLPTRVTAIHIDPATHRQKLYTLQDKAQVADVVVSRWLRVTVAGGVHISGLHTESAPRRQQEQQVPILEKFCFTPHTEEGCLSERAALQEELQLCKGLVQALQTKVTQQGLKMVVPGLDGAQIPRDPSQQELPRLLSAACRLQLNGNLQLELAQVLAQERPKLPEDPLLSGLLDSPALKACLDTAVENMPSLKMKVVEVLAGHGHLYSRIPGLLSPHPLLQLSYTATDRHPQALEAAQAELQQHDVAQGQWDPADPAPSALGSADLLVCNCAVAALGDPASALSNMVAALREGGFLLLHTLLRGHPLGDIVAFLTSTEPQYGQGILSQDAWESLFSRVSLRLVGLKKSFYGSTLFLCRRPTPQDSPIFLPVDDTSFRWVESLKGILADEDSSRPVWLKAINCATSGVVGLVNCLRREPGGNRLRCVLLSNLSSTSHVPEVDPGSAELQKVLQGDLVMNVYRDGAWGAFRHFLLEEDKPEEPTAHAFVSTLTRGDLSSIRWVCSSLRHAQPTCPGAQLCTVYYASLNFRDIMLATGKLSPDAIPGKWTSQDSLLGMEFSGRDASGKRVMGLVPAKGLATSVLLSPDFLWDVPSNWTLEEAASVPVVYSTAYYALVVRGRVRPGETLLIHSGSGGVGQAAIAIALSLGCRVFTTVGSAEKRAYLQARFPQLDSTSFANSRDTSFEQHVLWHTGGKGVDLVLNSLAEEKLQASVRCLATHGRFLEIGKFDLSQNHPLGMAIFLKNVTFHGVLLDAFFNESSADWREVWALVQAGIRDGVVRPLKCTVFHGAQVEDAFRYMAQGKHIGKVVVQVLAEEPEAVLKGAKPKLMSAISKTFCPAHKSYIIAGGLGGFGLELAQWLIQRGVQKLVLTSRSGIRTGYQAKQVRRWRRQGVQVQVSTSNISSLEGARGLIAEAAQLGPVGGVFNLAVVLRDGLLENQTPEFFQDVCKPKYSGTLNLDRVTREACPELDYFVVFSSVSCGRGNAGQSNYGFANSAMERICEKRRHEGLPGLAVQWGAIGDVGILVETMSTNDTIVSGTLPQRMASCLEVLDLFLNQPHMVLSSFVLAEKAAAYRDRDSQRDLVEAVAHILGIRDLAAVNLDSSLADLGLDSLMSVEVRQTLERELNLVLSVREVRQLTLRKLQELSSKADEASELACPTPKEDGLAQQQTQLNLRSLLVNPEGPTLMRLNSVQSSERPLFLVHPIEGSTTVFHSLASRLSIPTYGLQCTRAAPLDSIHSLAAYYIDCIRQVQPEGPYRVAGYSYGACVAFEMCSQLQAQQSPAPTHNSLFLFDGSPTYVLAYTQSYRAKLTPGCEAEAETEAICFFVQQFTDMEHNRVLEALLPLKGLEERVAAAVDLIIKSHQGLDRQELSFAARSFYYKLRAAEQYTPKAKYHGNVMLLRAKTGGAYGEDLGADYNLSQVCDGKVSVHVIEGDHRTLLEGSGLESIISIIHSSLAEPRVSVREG

Molecule | IC50 [nM]
Cc1c(-c2ccc(OC3CCN(C(=O)NO)CC3)cc2)ccc2cccnc12 [Example 554, 4-[4-(8-Methyl-7-quinolyl)phenoxy]piperidine-1-carbohydroxamic acid, HCl] | 1000 to 10000
Cc1c(-c2ccc(OC3CCN(C(=O)Nc4cccnc4)CC3)cc2)ccc2nccn12 [Example 596, 4-[4-(5-Methylimidazo[1,2-a]pyridin-6-yl)phenoxy]-N-(3-pyridyl)piperidine-1-carboxamide] | 1 to 99
CCN1CCN(C(=O)N2CCC(Oc3ccc(-c4ccc5cccnc5c4C)cc3)CC2)CC1 [Example 535, (4-Ethyl lpiperazin-1-yl)-[4-[4-(8-methyl-7-quinolyl)phenoxy]-1-piperidyl]methanone tosylate] | 1000 to 10000

Same assay, conditions: 5 nM FASN, 150 μM NADPH, 10 μM acetyl-CoA, 25 μM malonyl-CoA, 90 minutes incubation; read-out: IC50 data for Compounds of Formulae I-V/V(a): Activity

Molecule | IC50 [nM]
CCC(=O)N1CCC(Oc2ccc(-c3ccc(C#N)cc3)cc2)CC1 [Example 493, 4′-(1-Propionyl-piperidin-4-yloxy)-biphenyl-4-carbonitrile] | 1000 to 10000
O=C(C1CC1)N1CCC(Nc2ccc(-c3cnc4ccccc4c3)cc2)CC1 [Example 527, Cyclopropyl-[4-(4-quinolin-3-yl-phenylamino)-piperidin-1-yl]-methanone, HCl] | 1000 to 10000
COc1cc2ncc(-c3ccc(OC4CCN(C(=O)C5CC5)CC4)cc3)cc2cc1Cl [Example 448, {4-[4-(6-Chloro-7-methoxyquinolin-3-yl)-phenoxy]-piperidin-1-yl}-cyclopropylmethanone] | 1000 to 10000
CCC(=O)N1CCC(Oc2ccc(-c3cn4ccnc4cc3C)cc2)CC1 [Example 293, 1-{4-[4-(7-Methylimidazo[1,2-a]pyridin-6-yl)-phenoxy]-piperidin-1-yl}-propan-1-one] | 1000 to 10000
CC(C)C(=O)N1CCC(Oc2ccc(-c3ccc4cccnc4c3)cc2Cl)CC1 [Example 195, 1-[4-(2-Chloro-4-quinolin-7-yl-phenoxy)-piperidin-1-yl]-2-methyl-propan-1-one] | 1000 to 10000
O=C(C1CCC1)N1CCC(Oc2ccc(-c3cc(O)c4ccnn4c3)cc2)CC1 [Example 427, Cyclobutyl-{4-[4-(4-hydroxy-pyrazolo[1,5-a]pyridin-6-yl)-phenoxy]-piperidin-1-yl}-methanone] | 1000 to 10000
CNC(=O)N1CCC(Oc2ccc(-c3ccc4cccnc4c3OC)cc2)CC1 [Example 85, 4-[4-(8-Methoxyquinolin-7-yl)-phenoxy]-piperidine-1-carboxylic acid methylamide] | 100 to 999
N#Cc1ccc(-c2ccc(OC3CCN(C(=O)C4CC4)CC3)cc2)cc1 [Example 495, 4′-(1-Cyclopropanecarbonyl-piperidin-4-yloxy)-biphenyl-4-carbonitrile] | 100 to 999
O=C(C1CC1)N1CCC(Oc2ccc(-c3cnc4c(c3)CCCC4)cc2)CC1 [Example 19, Cyclopropyl-{4-[4-(5,6,7,8-tetrahydro-quinolin-3-yl)-phenoxy]-piperidin-1-yl}-methanone] | 1000 to 10000
O=C(C1CC1)N1CCC(Oc2ccc(-c3ccnc(Nc4ccccc4)c3)cc2)CC1 [Example 405, Cyclopropyl-{4-[4-(2-phenylaminopyridin-4-yl)-phenoxy]-piperidin-1-yl}-methanone] | 1000 to 10000
O=C(C1CC1)N1CCC(Oc2ncc(-c3cnc4ccccc4c3)cn2)CC1 [Example 139, Cyclopropyl-[4-(5-quinolin-3-yl-pyrimidin-2-yloxy)-piperidin-1-yl]-methanone, 2HCl] | 1000 to 10000
CCC(=O)N1CCC(Oc2ccc(-c3ccc4cn(C)nc4c3)cc2)CC1 [Example 251, 1-{4-[4-(2-Methyl-2H-indazol-6-yl)-phenoxy]-piperidin-1-yl}-propan-1-one] | 100 to 999
CC(C)C(=O)N1CCC(Oc2ccc(-c3cnc4ccccc4c3)cc2Cl)CC1 [Example 192, 1-[4-(2-Chloro-4-quinolin-3-yl-phenoxy)-piperidin-1-yl]-2-methyl-propan-1-one] | 1000 to 10000
CCC(=O)N1CCC(Oc2ccc(-c3cnc4cccnc4c3)cc2)CC1 [Example 12, 1-[4-(4-1,5-Naphthyridin-3-yl-phenoxy)-piperidin-1-yl]-propan-1-one] | 1000 to 10000
Nc1c(-c2ccc(OC3CCN(C(=O)[C@H]4CCCO4)CC3)cc2)cnc2ccccc12 [Example 234, {4-[4-(4-Aminoquinolin-3-yl)-phenoxy]-piperidin-1-yl}-(R)-tetrahydro-furan-2-yl-methanone] | 100 to 999
1-{4-[4-(4-Methylisoquinolin-6-yl)-phenox]-piperidin-1-yl}-propan-1-one HCl [Example 457] | 1 to 99
COc1cc(-c2ccc(OC3CCN(C(=O)C4CC4)CC3)cc2)cnc1OC [Example 499, Cyclopropyl-{4-[4-(5,6-dimethoxypyridin-3-yl)-phenoxy]-piperidin-1-yl}-methanone] | 1000 to 10000
CCC(=O)N1CCC(Oc2ccc(-c3ccc4cnc(Cl)cc4c3)cc2)CC1 [Example 413, 1-{4-[4-(3-Chloroisoquinolin-6-yl)-phenoxy]-piperidin-1-yl}-propan-1-one] | 1000 to 10000
Cc1c(-c2ccc(O[C@H]3CCN(C(=O)C4CC4)C[C@H]3F)cc2)ccc2cccnc12 (relative stereo) [Example 368, Cyclopropyl-{cis-3-fluoro-4-[4-(8-methylquinolin-7-yl)-phenoxy]-piperidin-1-yl}-methanone, HCl] | 1000 to 10000
CO[C@H](C)C(=O)N1CCC(Oc2ccc(-c3cnc4ccccc4c3)cc2)CC1 [Example 108, (R)-2-Methoxy-1-[4-(4-quinolin-3-yl-phenoxy)-piperidin-1-yl]-propan-1-one, 2HCl] | 100 to 999

Continued, values first:

IC50 [nM] | Molecule
1 to 99 | Cc1c(-c2ccc(OC3CCN(C(=O)[C@H]4CCCO4)CC3)c(F)c2)ccc2cccnc12 [Example 226, {4-[2-Fluoro-4-(8-methylquinolin-7-yl)-phenoxy]-piperidin-1-yl}-(R)-tetrahydrofuran-2-yl-methanone]
1 to 99 | CCC(=O)N1CCC(Sc2ccc(-c3cnc4ccccc4c3)cc2)CC1 [Example 518, 1-(4-((4-(Quinolin-3-yl)phenyl)thio)piperidin-1-yl)propan-1-one, HCl]
1 to 99 | Nc1cc2cc(-c3ccc(OC4CCN(C(=O)[C@H]5CCCO5)CC4)cc3)ccc2cn1 [Example 436, {4-[4-(3-Aminoisoquinolin-6-yl)-phenoxy]-piperidin-1-yl}-(R)-tetrahydro-furan-2-yl-methanone]
1 to 99 | O=C([C@H]1CCCO1)N1CCC(Oc2ccc(-c3ccc4nccn4c3)cc2)CC1 [Example 318, [4-(4-Imidazo[1,2-a]pyridin-6-yl-phenoxy)-piperidin-1-yl]-(R)-tetrahydro-furan-2-yl-methanone; compound with trifluoroacetic acid]
1 to 99 | CC(C)C(=O)N1CCC(Sc2ccc(-c3ccc4cccnc4c3)cc2)CC1 [Example 520, HCl]
1 to 99 | Cc1ccc2ncc(-c3ccc(OC4CCN(C(=O)[C@H]5CCCO5)CC4)cc3)cc2c1 [Example 485, {4-[4-(6-Methylquinolin-3-yl)-phenoxy]-piperidin-1-yl}-(R)-tetrahydro-furan-2-yl-methanone, HCl]
1 to 99 | O=C([C@H]1CCCO1)N1CCC(Oc2ccc(-c3cnc4ccccc4c3)cc2)CC1 [Example 103, [4-(4-Quinolin-3-yl-phenoxy)-piperidin-1-yl]-(R)-tetrahydrofuran-2-yl-methanone, HCl]
1 to 99 | CN(C)CCNc1c(-c2ccc(OC3CCN(C(=O)[C@H]4CCCO4)CC3)cc2)ccc2cccnc12 [Example 329, (4-{4-[8-(2-Dimethylaminoethylamino)-quinolin-7-yl]-phenoxy}-piperidin-1-yl)-(R)tetrahydrofuran-2-yl-methanone]
1 to 99 | O=C(C1CC1)N1CCC(Oc2ccc(-c3ccc4cccnc4c3Cl)cc2)CC1 [Example 59, {4-[4-(8-Chloroquinolin-7-yl)-phenoxy]-piperidin-1-yl}-cyclopropyl-methanone]
1 to 99 | O=C([C@H]1CCCO1)N1CCC(Oc2ccc(-c3cnc4sccc4c3)cc2)CC1 [Example 254, (R)-Tetrahydrofuran-2-yl-[4-(4-thieno[2,3-b]pyridin-5-yl-phenoxy)-piperidin-1-yl]-methanone, TFA salt]
1 to 99 | O=C([C@H]1CCCO1)N1CCC(Oc2ccc(-c3ccc4c(C5CC5)nccc4c3)cc2)CC1 [Example 440, {4-[4-(1-Cyclopropylisoquinolin-6-yl)-phenoxy]-piperidin-1-yl}-(R)-tetrahydrofuran-2-yl-methanone]
1 to 99 | CC(C)Oc1c(-c2ccc(OC3CCN(C(=O)[C@H]4CCCO4)CC3)cc2)ccc2cccnc12 [Example 180, {4-[4-(8-Isopropoxyquinolin-7-yl)-phenoxy]-piperidin-1-yl}-(R)-tetrahydrofuran-2-yl-methanone, HCl]
1 to 99 | Cc1c(-c2ccc(OC3CCN(C(=O)N4CCCO4)CC3)cc2)cnc2ccccc12 [Example 78, Isoxazolidin-2-yl-{4-[4-(4-methylquinolin-3-yl)-phenoxy]-piperidin-1-yl}-methanone]
1 to 99 | CONC(=O)N1CCC(Oc2ccc(-c3cnc4ccccc4c3C)cc2)CC1 [Example 82, 4-[4-(4-Methylquinolin-3-yl)-phenoxy]-piperidine-1-carboxylic acid methoxyamide]
1 to 99 | Cn1ncc2ccc(-c3ccc(OC4CCN(C(=O)[C@H]5CCCO5)CC4)cc3)cc21 [Example 317, {4-[4-(1-Methyl-1H-indazol-6-yl)-phenoxy]-piperidin-1-yl}-(R)-tetrahydrofuran-2-yl-methanone; compound with trifluoroacetic acid]
1 to 99 | COc1nccc2cc(-c3ccc(OC4CCN(C(=O)[C@H]5CCCO5)CC4)cc3)ccc12 [Example 432, {4-[4-(1-Methoxyisoquinolin-6-yl)-phenoxy]-piperidin-1-yl}-(R)-tetrahydro-furan-2-yl-methanone]

Source: patent US9902696B2, “1,4-substituted piperidine derivatives” (Cephalon, Inc., priority 2015, dated 2018)
